Assay results from patent publication US20160257697A1, “THIOPHENE-SUBSTITUTED TETRACYCLIC COMPOUNDS AND METHODS OFUSE THEREOF FOR THE TREATMENT OF VIRAL DISEASES” (priority 2013, published 2016).
Like-named read-outs stand apart in the source and are kept apart here.

Experiments:
Experiment in all cases: microbe, parasite or virus in culture
Format in all cases: cell-based, Hepatitis C virus (HCV)
Details in all cases: Replicon Assay A
HCV replicon 1AY93H = test system: HCV replicon 1AY93H
Protocol: (§1) To measure cell-based anti-HCV activity of compounds of the present invention, two complimentary assays were employed using various replicons. In the first assay (“Replicon Assay A”), replicon cells were seeded at 2000 cells/well in 384-well 384-well flat bottom tissue culture treated clear bottom plate (Corning 3707) in the presence of the test compound. […] The final concentration of DMSO was 0.5%. Fetal bovine serum was 5%, in the assay media. Cells were harvested on day 3 by removing media and washing the cells with a suitable wash buffer. The cells are lysed with the addition of 1× Qiagen lysis buffer (Cat #1062731). The replicon RNA level was measured using real time PCR (TaqMan® EZ RT-PCR, Applied Biosystems 403028) with the following primers and probes: […]
(§2) Cyclophilin RNA was used as endogenous control and was amplified in the same reaction as NS5B (multiplex PCR). The real-time RT-PCR reactions were run on ABI PRISM 7900HT Sequence Detection System using the following program: 50° C. for 2 minutes, 60° C. for 30 minutes, 95° C. for 5 minutes, 40 cycles of 94° C. for 20 sec, 55° C. for 1 minutes.
(§3) The amount of HCV replicon RNA per cell is quantified using a linear regression curve for a known nanogram (ng) amount of HCV replicon total RNA. This is established by plotting the Cycle Threshold values (Ct) from the Neo probe and primer set versus the log (ng) for each HCV replicon total RNA standard. The amount of HCV RNA for each replicon sample is calculated by taking the sample's Ct value, minus the line intercept, divided by the slope of the line. Similarly, the amount of Cyclophilin mRNA per cell is also quantified using a linear regression curve for a known nanogram (ng) amount of HCV replicon total RNA. Again, this is established by plotting the Cycle Threshold values (Ct) from the Cyclophilin probe and primer set versus the log (ng) for each HCV replicon total RNA standard.
(§4) Data for replicons 1A, 1AY93H and 2B were obtained using Replicon Assay A and data for replicons 1AQ30D and 1B were obtained using Replicon Assay B.

HCV replicon 1A = test system: HCV replicon 1A
Protocol: as §1, §2, §3, §4

HCV replicon 2B = test system: HCV replicon 2B
Protocol: as §1, §2, §3, §4

[1] = read-out: 1A Y93H IC50, HCV replicon 1A Y93H
[2] = read-out: 1A Y93H IC50, replicon 1AY93H
[3] = Hepatitis C virus, read-out: 1A Y93H IC50 (nM), replicon 1AY93H
[4] = Hepatitis C virus, read-out: 2B IC50 (nM), replicon 2B

| SMILES | IC50 (HCV replicon 1AY93H; [2]) [nM] | IC50 (HCV replicon 1A; replicon 1A) [nM] | also measured |
| --- | --- | --- | --- |
| COC(=O)NC(C(=O)N1[C@@H]2C[C@@H]2C[C@H]1c1ncc(-c2ccc3c(c2)cc2n3C(c3cc4c(s3)CCC4)Oc3cc(-c4cnc([C@@H]5CCCN5C(=O)[C@@H](NC(=O)OC)C(C)C)[nH]4)cc(F)c3-2)[nH]1)C(C)C (single isomer, unassigned) [Compound 660] | – | – | IC50 (HCV replicon 1AY93H; [1]): 1.04 nM; IC50 (HCV replicon 1A; HCV replicon 1A): 0.00338 nM |
| COC(=O)NC(C(=O)N1CCC[C@H]1c1ncc(-c2ccc3c(c2)cc2n3C(c3ccc(C4CC4)s3)Oc3cc(-c4cnc([C@@H]5CCCN5C(=O)[C@@H](NC(=O)OC)C(C)C)[nH]4)cc(F)c3-2)[nH]1)C1CCOC(C)(C)C1 (single isomer, unassigned) [Compound 224] | 8.88 | 0.048 | – |
| COC(=O)NC(C(=O)N1CCC[C@H]1c1ncc(-c2cc(F)c3c(c2)OC(c2ccc(C4CC4)s2)n2c-3cc3cc(-c4cnc([C@@H]5CCCN5C(=O)[C@@H](NC(=O)OC)C(C)C)[nH]4)ccc32)[nH]1)C1C[C@@H](C)O[C@@H](C)C1 (single isomer, unassigned) [Compound 187] | 14.8 | 0.0664 | – |
| CC[C@@H]1CC(C(NC(=O)OC)C(=O)N2CCC[C@H]2c2ncc(-c3ccc4c(c3)cc3n4C(c4ccc(C5CC5)s4)Oc4cc(-c5cnc([C@@H]6CCCN6C(=O)[C@@H](NC(=O)OC)C(C)C)[nH]5)cc(F)c4-3)[nH]2)C[C@H](CC)O1 (single isomer, unassigned) [Compound 288] | 16 | 0.0046 | – |
| COC(=O)N[C@H](C(=O)N1CCC[C@H]1c1ncc(-c2cc(F)c3c(c2)OC(c2csc(C4CC4)c2)n2c-3cc3cc(-c4cnc([C@@H]5CCCN5C(=O)[C@@H](NC(=O)OC)C(C)C)[nH]4)ccc32)[nH]1)C(C)C (single isomer, unassigned) [Compound 321] | 5.79 | – | IC50 (HCV replicon 1A; Hepatitis C virus, replicon 1A): 0.0013 nM |
| COC(=O)N[C@H](C(=O)N1CCC[C@H]1c1ncc(-c2ccc3c(c2)OC(c2ccc(C4CC4)s2)n2c-3c(F)c3cc(-c4cnc([C@@H]5CCCN5C(=O)[C@@H](NC(=O)OC)C(C)C)[nH]4)ccc32)[nH]1)C(C)C (single isomer, unassigned) [Compound 605] | – | – | IC50 (HCV replicon 1AY93H; [1]): 1.26 nM; IC50 (HCV replicon 1A; HCV replicon 1A): 0.0017 nM |
| CCc1ccc(C2Oc3cc(-c4cnc([C@@H]5CCCN5C(=O)[C@@H](NC(=O)OC)C(C)C)[nH]4)cc(F)c3-c3cc4cc(-c5cnc([C@@H]6C[C@H]7C[C@H]7N6C(=O)C(NC(=O)OC)C6CCOC(C)(C)C6)[nH]5)ccc4n32)s1 (single isomer, unassigned) [Compound 198] | 14.3 | 0.077 | – |
| COC(=O)NC(C(=O)N1CCC[C@H]1c1ncc(-c2cc(F)c3c(c2)OC(c2ccc(C4CC4)s2)n2c-3cc3cc(-c4cnc([C@@H]5CCCN5C(=O)[C@@H](NC(=O)OC)C(C)C)[nH]4)ccc32)[nH]1)C1CCOC(C)(C)C1 (single isomer, unassigned) [Compound 213] | 13.6 | 0.0653 | – |
| COC(=O)N[C@H](C(=O)N1CCC[C@H]1c1ncc(-c2cc(F)c3c(c2)OC(c2ccc(CC(C)(C)OC)s2)n2c-3cc3cc(-c4cnc([C@@H]5CCCN5C(=O)[C@@H](NC(=O)OC)C(C)C)[nH]4)ccc32)[nH]1)C(C)C (single isomer, unassigned) [Compound 843] | – | – | IC50 (HCV replicon 1AY93H; HCV replicon 1A Y93H, read-out: 1A Y93H IC50): 0.329 nM; IC50 (HCV replicon 1A; HCV replicon 1A): 0.0022 nM |
| CCc1ccc(C2Oc3cc(-c4cnc([C@@H]5CCCN5C(=O)[C@@H](NC(=O)OC)C(C)C)[nH]4)cc(F)c3-c3cc4cc(-c5cnc([C@@H]6C[C@@H](F)CN6C(=O)C(NC(=O)OC)C6CCOC(C)(C)C6)[nH]5)ccc4n32)s1 (single isomer, unassigned) [Compound 256] | 16.9 | 0.117 | – |
| COC(=O)NC(C(=O)N1CCC[C@H]1c1ncc(-c2cc(F)c3c(c2)OC(c2ccc(C4CC4)s2)n2c-3cc3cc(-c4cnc([C@@H]5CCCN5C(=O)C(NC(=O)OC)C5C[C@@H](C)O[C@@H](C)C5)[nH]4)ccc32)[nH]1)C1C[C@@H](C)O[C@@H](C)C1 (single isomer, unassigned) [Compound 304] | 16.8 | 0.0455 | – |
| COC(=O)NC(C(=O)N1CCC[C@H]1c1ncc(-c2ccc3c(c2)cc2n3C(c3cc(C)c(C)s3)Oc3cc(-c4cnc([C@@H]5CCCN5C(=O)[C@@H](NC(=O)OC)C(C)C)[nH]4)cc(F)c3-2)[nH]1)C(C)(C)F (single isomer, unassigned) [Compound 40] | 1.12 | 0.002 | – |
| COC(=O)NC(C(=O)N1CCC[C@H]1c1ncc(-c2ccc3c(c2)cc2n3C(c3cc(C)c(C)s3)Oc3cc(-c4cnc([C@@H]5CCCN5C(=O)[C@@H](NC(=O)OC)C(C)C)[nH]4)cc(F)c3-2)[nH]1)C(C)(C)F (single isomer, unassigned) [Compound 41] | 2.45 | 0.002 | – |
| COC(=O)N[C@H](C(=O)N1C[C@H](F)C[C@@H]1c1ncc(-c2ccc3c(c2)OC(c2cc4ccccc4s2)n2c-3cc3cc(-c4ncc([C@@H]5C[C@@H](F)CN5C(=O)[C@@H](NC(=O)OC)C5CCOCC5)[nH]4)ccc32)[nH]1)C1CCOCC1 (mixture of isomers) [Compound 814] | – | – | IC50 (HCV replicon 1AY93H; Hepatitis C virus, read-out: 1A Y93H IC50, HCV replicon 1A Y93H): 0.055 nM; IC50 (HCV replicon 1A; Hepatitis C virus, HCV replicon 1A): 0.1 nM |
| COC(=O)NC(C(=O)N1CCC[C@H]1c1ncc(-c2cc(F)c3c(c2)OC(c2ccc(C4CC4)s2)n2c-3cc3cc(-c4cnc([C@@H]5C[C@H]6C[C@H]6N5C(=O)[C@@H](NC(=O)OC)C(C)C)[nH]4)ccc32)[nH]1)C(C)(C)F (single isomer, unassigned) [Compound 100] | 8.26 | 0.0242 | – |
| CCc1ccc(C2Oc3cc(-c4cnc([C@@H]5CCCN5C(=O)[C@@H](NC(=O)OC)C(C)C)[nH]4)cc(F)c3-c3cc4cc(-c5cnc([C@@H]6C[C@@H](F)CN6C(=O)C(NC(=O)OC)C6CCOC(C)(C)C6)[nH]5)ccc4n32)s1 (single isomer, unassigned) [Compound 257] | 9.38 | 0.0924 | – |
| COC(=O)N[C@H](C(=O)N1CCC[C@H]1c1ncc(-c2cc(F)c3c(c2)OC(c2ccc(CCC4CC4)s2)n2c-3cc3cc(-c4cnc([C@@H]5CCCN5C(=O)[C@@H](NC(=O)OC)C(C)C)[nH]4)ccc32)[nH]1)C(C)C (single isomer, unassigned) [Compound 91] | – | – | IC50 (HCV replicon 1AY93H; [3]): 0.28 nM; IC50 (HCV replicon 2B; [4]): 3.14 nM |
| COC(=O)NC(C(=O)N1[C@@H]2C[C@@H]2C[C@H]1c1ncc(-c2ccc3c(c2)cc2n3C(c3ccc(C4CC4)s3)Oc3cc(-c4cnc([C@@H]5CCCN5C(=O)[C@@H](NC(=O)OC)C(C)C)[nH]4)cc(F)c3-2)[nH]1)C1CCOC(C)(C)C1 (single isomer, unassigned) [Compound 277] | 0.13 | – | IC50 (HCV replicon 2B; read-out: 2B IC50, replicon 2B): 0.58 nM |
| COC(=O)N[C@H](C(=O)C1CCC[C@H]1c1ncc(-c2ccc3c(c2)cc2n3C(c3ccc(C(F)(F)F)s3)Oc3cc(-c4cnc([C@@H]5CCCN5C(=O)[C@@H](NC(=O)OC)C(C)C)[nH]4)cc(F)c3-2)[nH]1)C(C)C (single isomer, unassigned) [Compound 90] | 0.74 | – | IC50 (HCV replicon 2B; read-out: 2B IC50, replicon 2B): 1.91 nM |
| COC(=O)N[C@H](C(=O)N1CCC[C@H]1c1ncc(-c2cc(F)c3c(c2)OC(c2scc4c2OCCO4)n2c-3cc3cc(-c4cnc([C@@H]5CCCN5C(=O)[C@@H](NC(=O)OC)C(C)C)[nH]4)ccc32)[nH]1)C(C)C (single isomer, unassigned) [Compound 525] | – | – | IC50 (HCV replicon 1AY93H; [1]): 15.1 nM; IC50 (HCV replicon 2B; read-out: 2B IC50, HCV replicon 2B): 3.14 nM |
| COC(=O)N[C@H](C(=O)N1CCC[C@H]1c1ncc(-c2cc(F)c3c(c2)OC(c2ccc(CC4CC4)s2)n2c-3cc3cc(-c4cnc([C@@H]5CCCN5C(=O)[C@@H](NC(=O)OC)C(C)C)[nH]4)ccc32)[nH]1)C(C)C (single isomer, unassigned) [Compound 53] | – | – | IC50 (HCV replicon 1AY93H; [3]): 1.87 nM; IC50 (HCV replicon 2B; [4]): 1.95 nM |
| COC(=O)NC(C(=O)N1[C@@H]2C[C@@H]2C[C@H]1c1ncc(-c2ccc3c(c2)cc2n3C(c3ccc(C(C)C)s3)Oc3cc(-c4cnc([C@@H]5CCCN5C(=O)[C@@H](NC(=O)OC)C(C)C)[nH]4)cc(F)c3-2)[nH]1)C1C[C@@H](C)O[C@@H](C)C1 (single isomer, unassigned) [Compound 283] | – | – | IC50 (HCV replicon 1AY93H; [3]): 0.192 nM; IC50 (HCV replicon 2B; [4]): 0.68 nM |
| COC(=O)N[C@H](C(=O)N1CCC[C@H]1c1ncc(-c2cc(F)c3c(c2)OC(c2sc(C4CC4)cc2F)n2c-3cc3cc(-c4cnc([C@@H]5CCCN5C(=O)[C@@H](NC(=O)OC)C(C)C)[nH]4)ccc32)[nH]1)C(C)C (single isomer, unassigned) [Compound 66] | 0.13 | – | IC50 (HCV replicon 2B; read-out: 2B IC50, replicon 2B): 0.23 nM |
